From ChEMBL document CHEMBL1201862, “PubChem BioAssay data set” (2004)
Active and inactive are the calls of the source.

What was measured:
HEK293 [1] = experiment: cells; type: functional, cell-based; details: Homo sapiens
HEK293 [2] = experiment: NOD2 signaling inhibitors in MDP-stimulated cells, cell-based, uHTS, luminescence (AID 2001); type: functional; details: Homo sapiens
HEK293 [3] = experiment: inhibition of NOD1-driven NF-kB reporter – cell-based, luminescence, uHTS, primary screen (AID 1578); type: functional; details: Homo sapiens
[4] = viability of uninfected HEp-2 cells – cell-based, HTS, cytotoxicity control for RSV inhibitor project, dose response (AID 2410); type: functional; details: human respiratory syncytial virus
[5] = molecular target: T1, Nucleotide-binding oligomerization domain-containing protein 2 (Homo sapiens, UniProt Q9HC29); experiment: inhibition of NOD2-driven NF-kB reporter – cell-based, luminescence, uHTS, HEK293 (AID 1566); type: functional
T1 sequence (Q9HC29 whole entry, the tested form may be a part): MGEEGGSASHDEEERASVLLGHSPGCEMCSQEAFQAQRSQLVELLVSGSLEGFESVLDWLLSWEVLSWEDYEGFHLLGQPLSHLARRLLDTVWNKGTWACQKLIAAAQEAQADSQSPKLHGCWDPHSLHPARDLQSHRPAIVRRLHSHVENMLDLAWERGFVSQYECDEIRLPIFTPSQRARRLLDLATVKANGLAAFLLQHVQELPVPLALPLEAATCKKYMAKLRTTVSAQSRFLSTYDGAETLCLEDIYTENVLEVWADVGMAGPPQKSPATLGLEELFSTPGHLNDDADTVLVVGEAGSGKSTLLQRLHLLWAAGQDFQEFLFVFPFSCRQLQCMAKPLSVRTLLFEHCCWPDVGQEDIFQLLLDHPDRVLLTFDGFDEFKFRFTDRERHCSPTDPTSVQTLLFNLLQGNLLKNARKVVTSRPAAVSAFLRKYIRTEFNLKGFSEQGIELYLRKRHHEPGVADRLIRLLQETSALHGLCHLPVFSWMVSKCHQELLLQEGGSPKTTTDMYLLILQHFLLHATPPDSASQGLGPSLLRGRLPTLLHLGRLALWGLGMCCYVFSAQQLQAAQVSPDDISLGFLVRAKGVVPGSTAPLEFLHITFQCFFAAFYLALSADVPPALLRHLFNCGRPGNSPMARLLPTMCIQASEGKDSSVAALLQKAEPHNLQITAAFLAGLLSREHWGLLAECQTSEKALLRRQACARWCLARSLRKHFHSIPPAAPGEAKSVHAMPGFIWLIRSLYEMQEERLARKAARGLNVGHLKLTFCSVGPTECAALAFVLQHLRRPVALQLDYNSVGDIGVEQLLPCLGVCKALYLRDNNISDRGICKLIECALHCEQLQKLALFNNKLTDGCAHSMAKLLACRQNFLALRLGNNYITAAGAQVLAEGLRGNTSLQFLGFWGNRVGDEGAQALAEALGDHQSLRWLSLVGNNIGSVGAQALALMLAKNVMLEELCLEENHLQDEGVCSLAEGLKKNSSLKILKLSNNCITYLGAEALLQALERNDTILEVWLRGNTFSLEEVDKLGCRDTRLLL

HEK293 [6] = experiment: cells; details: Homo sapiens
HEK293 [7] = experiment: cells; type: functional, cell-based; details: Homo sapiens; remark: listed apart in the source
Cysteine protease ATG4B = molecular target: T2, Cysteine protease ATG4B (Homo sapiens, UniProt Q9Y4P1); type: functional;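 also: Fluorescence-based dose-response confirmation assay measuring inhibition of ATG4B activity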
T2 sequence (Q9Y4P1 whole entry): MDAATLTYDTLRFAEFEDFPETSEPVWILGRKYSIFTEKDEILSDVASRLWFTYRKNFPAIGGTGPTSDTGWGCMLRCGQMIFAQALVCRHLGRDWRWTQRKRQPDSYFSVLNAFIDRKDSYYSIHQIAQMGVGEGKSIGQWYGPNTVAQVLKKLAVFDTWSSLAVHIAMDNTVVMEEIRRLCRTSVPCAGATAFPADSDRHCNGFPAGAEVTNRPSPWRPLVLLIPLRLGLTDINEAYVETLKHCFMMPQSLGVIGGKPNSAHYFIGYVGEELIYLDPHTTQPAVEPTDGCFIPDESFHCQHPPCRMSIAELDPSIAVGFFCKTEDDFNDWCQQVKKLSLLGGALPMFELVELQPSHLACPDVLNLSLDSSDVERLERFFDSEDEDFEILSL

Phospholipase A2 = Phospholipase A2 (Homo sapiens, UniProt P04054); type: functional;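 also: confirmatory dose-response counterscreen on phospholipase A2, testing hits that came from an ultra-high-throughput screen for ATG4B inhibitors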
Chain of Phospholipase A2 (P04054 whole entry): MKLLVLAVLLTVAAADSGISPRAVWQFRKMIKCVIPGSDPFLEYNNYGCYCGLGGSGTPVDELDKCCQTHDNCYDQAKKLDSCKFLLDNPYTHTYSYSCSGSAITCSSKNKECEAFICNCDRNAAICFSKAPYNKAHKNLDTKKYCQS

HEK293 [8] = experiment: cells; type: functional, cell-based; details: Homo sapiens; remark: listed apart in the source
[9] = molecular target: T1, Nucleotide-binding oligomerization domain-containing protein 2; experiment: PubChem AID 2334; type: functional
Tumor necrosis factor = Tumor necrosis factor (Homo sapiens, UniProt P01375); experiment: analog potency on TNFa NF-kB signaling – cell-based, revised, SAR follow-up (AID 2337); type: functional
Chain of Tumor necrosis factor (P01375 whole entry, the tested form may be a part): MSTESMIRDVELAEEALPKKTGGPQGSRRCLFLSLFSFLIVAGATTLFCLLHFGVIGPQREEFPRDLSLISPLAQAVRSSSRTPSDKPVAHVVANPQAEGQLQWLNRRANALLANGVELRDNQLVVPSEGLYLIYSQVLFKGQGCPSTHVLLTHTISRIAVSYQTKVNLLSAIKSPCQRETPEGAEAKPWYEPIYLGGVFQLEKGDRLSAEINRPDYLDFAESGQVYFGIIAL

[10] = molecular target: T3, Nucleotide-binding oligomerization domain-containing protein 1 (Homo sapiens, UniProt Q9Y239); experiment: blockers of NOD1 pathway activity – revised, SAR follow-up (AID 2333); type: functional
T3 sequence (Q9Y239 whole entry): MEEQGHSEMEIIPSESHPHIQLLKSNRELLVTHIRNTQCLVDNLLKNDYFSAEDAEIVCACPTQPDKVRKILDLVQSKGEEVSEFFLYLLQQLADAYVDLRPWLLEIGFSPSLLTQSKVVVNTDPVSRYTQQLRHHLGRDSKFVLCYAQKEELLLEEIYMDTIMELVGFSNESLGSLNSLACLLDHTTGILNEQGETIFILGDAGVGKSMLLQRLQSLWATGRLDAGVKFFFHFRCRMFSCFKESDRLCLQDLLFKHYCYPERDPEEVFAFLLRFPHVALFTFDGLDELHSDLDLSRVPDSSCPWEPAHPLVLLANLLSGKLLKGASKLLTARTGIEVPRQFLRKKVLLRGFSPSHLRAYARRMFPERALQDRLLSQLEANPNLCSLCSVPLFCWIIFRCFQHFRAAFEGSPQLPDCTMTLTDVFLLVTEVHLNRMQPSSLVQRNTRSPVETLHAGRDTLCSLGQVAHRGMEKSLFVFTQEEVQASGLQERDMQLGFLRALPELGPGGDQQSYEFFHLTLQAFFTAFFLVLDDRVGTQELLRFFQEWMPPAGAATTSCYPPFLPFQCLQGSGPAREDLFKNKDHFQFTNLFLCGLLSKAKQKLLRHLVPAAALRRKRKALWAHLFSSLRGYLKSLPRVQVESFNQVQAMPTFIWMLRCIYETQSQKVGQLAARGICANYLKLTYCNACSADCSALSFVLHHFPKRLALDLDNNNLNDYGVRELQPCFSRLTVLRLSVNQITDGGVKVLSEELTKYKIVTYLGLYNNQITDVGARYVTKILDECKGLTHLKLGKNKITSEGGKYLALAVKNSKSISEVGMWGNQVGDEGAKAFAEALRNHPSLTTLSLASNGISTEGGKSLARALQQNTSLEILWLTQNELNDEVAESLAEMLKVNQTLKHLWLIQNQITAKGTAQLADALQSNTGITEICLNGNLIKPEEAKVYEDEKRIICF

Coagulation factor XII = molecular target: T4, Coagulation factor XII (Homo sapiens, UniProt P00748); experiment: activated coagulation factor XII inhibitor potency, concentration-effect curve, cell-free (AID 716); type: functional
T4 sequence (P00748 whole entry): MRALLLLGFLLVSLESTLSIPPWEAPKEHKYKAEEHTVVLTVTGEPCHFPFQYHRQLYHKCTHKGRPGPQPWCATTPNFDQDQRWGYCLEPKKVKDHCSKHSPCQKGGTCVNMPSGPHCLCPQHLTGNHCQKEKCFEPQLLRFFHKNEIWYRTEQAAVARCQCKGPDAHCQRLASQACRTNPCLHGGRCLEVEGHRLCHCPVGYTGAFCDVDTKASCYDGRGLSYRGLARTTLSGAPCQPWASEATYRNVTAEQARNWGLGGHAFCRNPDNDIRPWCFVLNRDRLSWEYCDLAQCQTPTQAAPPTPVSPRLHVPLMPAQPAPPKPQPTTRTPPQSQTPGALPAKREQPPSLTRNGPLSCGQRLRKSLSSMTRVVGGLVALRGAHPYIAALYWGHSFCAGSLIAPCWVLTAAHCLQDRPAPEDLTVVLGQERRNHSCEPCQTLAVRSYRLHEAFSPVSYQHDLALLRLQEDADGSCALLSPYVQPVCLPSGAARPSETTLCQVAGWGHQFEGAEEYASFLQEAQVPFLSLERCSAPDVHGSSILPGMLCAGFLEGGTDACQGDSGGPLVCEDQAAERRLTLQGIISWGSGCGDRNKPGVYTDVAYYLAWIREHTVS

[11] = viability of HCT116 lacking mutant beta-catenin – cell-based, human colon tumor, dose response (AID 1045); type: functional;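 also: HCT116 colon tumor cells with beta catenin knocked out; cells exposed to compound for 60 hours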
[12] = MIN6 cell viability loss – mouse insulinoma, cytotoxicity control, dose response (AID 2122); type: functional;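 also: confirmatory high-throughput counterscreen run to flag cytotoxic compounds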
[13] = Vero E6 cell cytotoxicity, dose response, cytotoxicity control for non-replicating M. tuberculosis project, secondary assay (AID 492998); type: functional, VeroE6; details: Vero C1008
[14] = THP-1 cell cytotoxicity, dose response, cytotoxicity control for non-replicating M. tuberculosis project (AID 489025); type: functional
[15] = decrease of insulin promoter-GFP reporter – imaging, high-content screening, mouse beta cells (AID 1628); type: functional; details: MIN6
[16] = viability of PTEN-deleted HCT116 cells – cell-based, HCT116 PTEN knockout, dose response (AID 1047); type: functional;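 also: HCT116 colon tumor cells with PTEN knocked out; cells exposed to compound for 60 hours before readout; potency for loss of cell viability measured by luminescence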
cells = type: functional
[17] = HepG2 cell cytotoxicity, dose response, cytotoxicity control for non-replicating M. tuberculosis project (AID 489018); type: functional; details: Mycobacterium tuberculosis

Compound: O=C(CSc1nc2ccccc2c(=O)n1Cc1ccccc1)Nc1ccc(Br)cc1C(=O)O
- IC50 (HEK293 [1]): > 20 µM (inactive)
- IC50 (HEK293 [2]): 10.2 µM (inactive)
- EC50 (HEK293 [3]): 6.11 µM (active)
- CC50 [4]: 11.1 µM (active)
- EC50 [5]: 7.92 µM (active)
- IC50 (HEK293 [6]): > 20 µM (inactive)
- IC50 (HEK293 [7]): > 20 µM (inactive)
- IC50 (Cysteine protease ATG4B): 13.9 µM (active)
- IC50 (Phospholipase A2): 12.1 µM (active)
- IC50 (HEK293 [8]): > 20 µM (inactive)
- IC50 [9]: 7.04 µM (active)
- IC50 (Tumor necrosis factor): 5.7 µM (active)
- IC50 [10]: 5.99 µM (active)

Compound: CC(=O)Nc1nc(=O)c2ccccc2s1
- IC50 (Coagulation factor XII): > 50 µM (inactive)

Compound: COc1cccc(CNCCc2c[nH]c3ccccc23)c1OCc1ccc(F)cc1
- EC50 [11]: 6.39 µM (active)
- IC50 [12]: 3.37 µM (active)
- CC50 [13]: 13.4 µM (active)
- CC50 [14]: 15.6 µM (active)
- IC50 [15]: 2.56 µM (active)
- EC50 [16]: 5.74 µM (active)
- IC50 (cells): 16.4 µM (active)
- CC50 [17]: 9.79 µM (active)
